Values belong to the molecule of their own block, whether it stands above or below them.
Tests used:
P-gp (human MDR1) = assay: MDCK-MDR1 bi-directional transport assay; conditions: dog; for Papp A→B at 1 h, 5 μM / Papp B→A at 1 h, 5 μM: MDCK-MDR1, Papp
Method: (§1) MDCK-MDR1 is a stable-transfected cell line originating from MDCK cells, with over-expression of human MDR1 gene. The cell line is widely used for the identification and characterization of P-gp substrates and inhibitors.
(§2) MDCK-MDR1 cells were plated into 96-well Millipore Millicell-96 plates at 7,500 cells/75 μL/well and incubated for three days at 37° C. with 5% CO2. Cells were washed with Hank's Balanced Salt Solution (HBSS) with 5 mM HEPES for 30 minutes before starting the experiment. Test compound solutions were prepared by diluting DMSO stock into HBSS buffer, resulting in a final DMSO concentration of 0.1%. Prior to the experiment, cell monolayer integrity was verified by […] electrical resistance (TEER). Transport experiment was initiated by adding test compounds to the apical (75 μL) or basal (250 μL) side. Transport plates were incubated at 37° C. in a humidified incubator with 5% CO2. Samples were taken from the donor and acceptor compartments after one hour and analyzed by liquid chromatography with tandem mass spectrometry (LC/MS/MS).
(§3) Digoxin was used as reference control.
(§4) Apparent permeability (Papp) values were calculated using the following equation: Papp=(dQ/dt)/A/Co; where dQ/dt is the initial rate of amount of test compound transported across cell monolayer, A is the surface area of the filter membrane, and Co is the initial concentration of the test compound, calculated for each direction using a 4-point calibration curve by LC/MS/MS.
(§5) Net flux ratio between the two directional transports was calculated by the following equation: Ratio=Papp, B-A/Papp, A-B; where Papp, B-A and Papp, A-B represent the apparent permeability of test compound from the basal-to-apical and apical-to-basal side of the cellular monolayer, respectively.
(§6) Recovery was calculated based on the compound concentration at the end of the experiment, compared to that at the beginning of the experiment, adjusted for volumes.
(§7) A net flux ratio greater than two was considered a positive result for substrate determination. […] If the addition of a known P-gp inhibitor to the experiment reduces the net flux ratio by a significant amount (more than 50% reduction or reduces the ratio to close to unity), it is likely that the compound tested is a P-gp substrate.

MDCK-MDR1 cells = assay: MDCK-MDR1 bi-directional transport assay; conditions: 5 μM
Method: as §1, §2, §3, §4, §5, §6, §7

MEK1 = target: T1, MEK1 (Homo sapiens, UniProt Q02750); assay: MEK inhibition assay, Biological Example 1a (33P-ATP, P81 filter-binding); conditions: read-out: Assay 1: biochemical MEK IC50
T1 construct: N-terminal His-tagged recombinant human full length protein; His (N); purchased Invitrogen PV3303; host or cells: insect cells
Method: MEK1 inhibitory activity of compounds were tested using the following procedure. […] Activated in vitro by RAF1. MW=49.2 kDa, GenBank Accession No. NP_002746. • Substrate: 5 μM ERK2 (K52R), • Kinase-dead mutant, (GenBank Accession No. NM_0011949), aa2-358 with N-terminal His6 tag, MW=43.63 kDa, expressed in E. coli.
The substrate was prepared in freshly prepared Reaction Buffer. The kinase was delivered into the substrate solution and gently mixed. Test compounds were delivered in 100% DMSO into the kinase reaction mixture by Acoustic technology (Echo550; nanoliter range), and incubated for 20 min at room temperature. ^33P-ATP was delivered into the reaction mixture to initiate the reaction. The reaction mixture was incubated for 2 hours at room temperature. Kinase activity was detected by P81 filter-binding method.

[1] = S9 stability assay, human liver S9 fraction; type: in vitro ADME; conditions: for CLint: known MEK compounds; for microsomal CLint at 1 μM / half-life at 1 μM: pH 7.4, Table 1, human liver S9 fraction; for microsomal CLint at 1 μM: read-out: CLint; for half-life at 1 μM: read-out: Liver S9 t1/2
Method: Compounds were assessed for metabolic stability in human skin by assessing their rate of disappearance from human S9 skin fraction. Similarly, compounds were assessed for metabolic stability in human liver by assessing their rate of disappearance from human S9 liver fraction. The protocol below can be used to assess the difference between skin and hepatic metabolism.
The assay was carried out in 96-well microtiter plates at 37° C. Reaction mixtures (25 μL) contained a final concentration of 1 μM test compound, 2 mg/mL liver or skin S9 protein, and 1 mM NADPH in buffer (100 mM potassium phosphate, pH 7.4 buffer with 1 mM EDTA, 3 mM MgCl2). At each of the time points (0, 15, 30, and 60 minutes), 150 μL of quench solution (100% acetonitrile with 0.1% formic acid) with internal standard was transferred to each well. Besides the zero minute controls, mixtures containing the same components except the NADPH were also prepared as the negative control. Verapamil or testosterone was included as a positive control to verify assay performance. Plates were sealed and centrifuged at 4° C. for 15 minutes at 4000 rpm. The supernatant was transferred to fresh plates for LC/MS/MS analysis.
All samples were analyzed on LC/MS/MS using an AB Sciex API 4000 instrument, coupled to a Shimadzu LC-20AD LC Pump system. Analytical samples were separated using a Waters Atlantis T3 dC18 reverse phase HPLC column (20 mm×2.1 mm) at a flow rate of 0.5 mL/min. The mobile phase consisted of 0.1% formic acid in water (solvent A) and 0.1% formic acid in 100% acetonitrile (solvent B).
The extent of metabolism was calculated as the disappearance of the test compound, compared to the 0-min control reaction incubations. Initial rates were calculated for the compound concentration and used to determine t1/2 values and subsequently, the intrinsic clearance, CLint=(0.693) (1/t1/2 (min)) (mL incubation/mg of S9 protein).

[2] = Compound levels in neck/back skin (LCMS), in vivo mouse model; set-up: species or system mice; conditions: topical 1% trametinib
Method: (§8) Week 4 (Experiment end): Skin and blood were collected right before the last morning dose (N=3), 1 hour (N=3 mice), and 2 hours (N=3 mice) after final application; Blood draw: Plasma compound levels (LCMS); Skin biopsy: formalin fixed for histology and p-ERK staining, flash frozen for Western analysis and skin compound levels (LCMS)
Skin biopsy and GI tract sampling: Skin was wiped down with 100% ethanol and a 1 cm^2 biopsy was obtained from compound application site each mouse at the 25 day end of experiment (except as noted below). The skin was biopsied prior to final dose from 3 mice, 1 hour after last compound application from 3 mice, 2 hours after last compound application from 3 mice. Half of the specimen were immediately flash frozen for LCMS analysis and Western Blot Analysis. Half of the specimen was fixed for 24 hours in 10% formalin and then transferred to ethanol for immunohistochemistry. Gastrointestinal tract was also formalin fixed overnight then transferred to 70% ETOH for storage.
(§9) Compound level analysis: Liquid chromatography with mass spectrometry method (LCMS) was used to detect compound levels in the skin and plasma. Tissues were preprocessed prior to LCMS as follows. Tissues were minced and incubated with collagenase and then finally homogenized using the stainless steel beads prior to LCMS analysis. Calibration curves and a QC test were run with each assay.

[3] = Plasma LCMS compound levels, in vivo mouse model; set-up: species or system mice; conditions: for concentration at 1 h: male, C57BL/6J, mouse, plasma; for Plasma LCMS Compound Levels: pre-dose (16 h)
Method: These mice were also shaved weekly.
as §8, §9

C57BL/6J mice = assay: In vivo mouse model, skin and systemic toxicity of topical application (survival)
Source text: This study was designed to assess the skin toxicity and gross systemic toxicity of twice daily topical administration of a compound disclosed herein, as well as to evaluate the effect of metabolic lability on systemic toxicity.
Study Objective: The primary objective of this study was to characterize the skin and systemic toxicity of twice daily topical application of a compound disclosed herein, applied for 25 days in mice. Secondary objectives included determination of the 25-day skin and plasma compound levels of formulations containing three dosages of compound of Ex. 2 after application to 10% body surface area (BSA) murine skin; assessment of gross systemic toxicity from the application of compound of Ex. 2 after twice daily application to 10% BSA murine skin for 25 days; and determination of the correlation of skin and plasma compound levels with associated toxicity.
Mice: 8 week old male C57BL/6J mice (Jackson Laboratories) were shaved prior to start of study and weekly.
Compound application: Compounds were dissolved in a 50% DMSO/50% propyelene glycol vehicle. 0.125 mL of the following compounds were applied to the shaved dorsal back of mice (10% BSA) twice daily for 5 days per week for a total of 24 days. The second dose was applied 8 hours after first morning dose. All mice were shaved once per week at application site.
Oral trametinib was dissolved in 0.5% hydroxypropyl methylcellulose (Sigma-Aldrich) and 0.2% Tween-80 (Sigma-Aldrich) and administered by oral gavage (0.2 mL bolus or 10 mg/kg) once daily 5 days per week. These mice were also shaved weekly.
Weekly (Weeks 0-4): body weight measurements weekly, starting week 0 until experiment end; photographs of dorsal back and face of each mouse weekly, starting week 0 until experiment end; skin; and gross stool analysis assessed weekly for heme color, starting week 0 until experiment end.
The study planned for the mice to be sacrificed at Day 25.
Kaplan Meier curves were analyzed to determine progression to skin toxicity for each arm as compared with vehicle. T-test were used to compare compound levels at each dosage. Ki-67+ cells and p-ERK expression were also assessed on a cellular level via immunostaining. Western blots informed semi-quantitative changes in p-ERK expression.

T1 sequence (Q02750 whole entry): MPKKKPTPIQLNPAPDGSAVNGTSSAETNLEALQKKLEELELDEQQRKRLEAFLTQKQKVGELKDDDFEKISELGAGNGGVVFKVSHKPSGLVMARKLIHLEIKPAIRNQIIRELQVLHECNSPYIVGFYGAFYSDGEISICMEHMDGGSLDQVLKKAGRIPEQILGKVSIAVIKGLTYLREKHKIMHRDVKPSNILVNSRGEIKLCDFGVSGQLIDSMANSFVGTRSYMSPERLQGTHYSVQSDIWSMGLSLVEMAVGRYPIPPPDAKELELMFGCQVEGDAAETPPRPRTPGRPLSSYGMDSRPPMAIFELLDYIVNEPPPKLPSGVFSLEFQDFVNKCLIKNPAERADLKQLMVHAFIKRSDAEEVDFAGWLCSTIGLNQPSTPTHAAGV

Structure (SMILES): C[C@H]1O[C@@H](O[C@H]2[C@@H](O)C[C@H](O[C@H]3[C@@H](O)C[C@H](O[C@H]4CC[C@@]5(C)[C@H](CC[C@@H]6[C@@H]5C[C@@H](O)[C@]5(C)[C@@H](C7=CC(=O)OC7)CC[C@]65O)C4)O[C@@H]3C)O[C@@H]2C)C[C@H](O)[C@@H]1O [Digoxin]
efflux ratio at 1 h, 5 μM (P-gp (human MDR1); MDCK-MDR1): 9.7 | Papp A→B at 1 h, 5 μM (P-gp (human MDR1); A-B Mean): 1.5 ×10⁻⁶ cm/s | Papp A→B at 1 h, 5 μM (P-gp (human MDR1); A-B Value, single values): 1.3 ×10⁻⁶ cm/s | Papp B→A at 1 h, 5 μM (P-gp (human MDR1); B-A Mean): 14.3 ×10⁻⁶ cm/s | Papp B→A at 1 h, 5 μM (P-gp (human MDR1); B-A Value, single values): 14.6 ×10⁻⁶ cm/s | Recover Rate (MDCK-MDR1 cells): 96% | Papp, A-B Value (MDCK-MDR1 cells; single values): 1.6 ×10⁻⁶ cm/s | Papp, B-A Value (MDCK-MDR1 cells; single values): 14.1 ×10⁻⁶ cm/s

Structure (SMILES): C#Cc1ccc(Nc2c(C(=O)NOCCO)c3cccnc3n2C)c(F)c1 [Example 3, 2-((4-Ethynyl-2-fluorophenyl)amino)—N-(2-hydroxyethoxy)-1-methyl-1H-pyrrolo[2,3-b]pyridine-3-carboxamide]
IC50 (MEK1): 2450 nM

Structure (SMILES): O=C(NOC[C@H](O)CO)c1ccc(F)c(F)c1Nc1ccc(I)cc1F [Example C2]
CLint [1]: 1.02 μL/min/mg protein | microsomal CLint at 1 μM [1]: 1.02 µL/min/mg | half-life at 1 μM [1]: 5.67 h

Structure (SMILES): CC(=O)Nc1cccc(-n2c(=O)n(C3CC3)c(=O)c3c(Nc4ccc(I)cc4F)n(C)c(=O)c(C)c32)c1 [Example C6]
CLint [1]: 0.86 μL/min/mg protein | microsomal CLint at 1 μM [1]: 0.86 µL/min/mg | half-life at 1 μM [1]: 6.7 h

Structure (SMILES): CC(=O)Nc1cccc(-n2c(=O)n(C3CC3)c(=O)c3c(Nc4ccc(I)cc4F)n(C)c(=O)c(C)c32)c1 [trametinib, reference compound]
Compound Levels in Neck/Back Skin ([2]; 1 h): 3626.06 µg/mL | Compound Levels in Neck/Back Skin ([2]; pre-dose (16 h)): 4520.39 µg/mL | concentration at 1 h ([3]; 10 mg/kg, oral trametinib): 0.0751 µg/mL | concentration at 1 h ([3]; topical 1% trametinib): 2.81 µg/mL | Plasma LCMS Compound Levels ([3]; oral trametinib): 39.93 ng/mL | Plasma LCMS Compound Levels ([3]; topical 1% trametinib): 1339.33 ng/mL | Survival Rates (C57BL/6J mice; oral trametinib 0.75 mg/kg daily gavage 5x/week, Day 0): 100% | Survival Rates (C57BL/6J mice; oral trametinib 0.75 mg/kg daily gavage 5x/week, Day 3): 90% | Survival Rates (C57BL/6J mice; oral trametinib 0.75 mg/kg daily gavage 5x/week, Day 6): 70% | Survival Rates (C57BL/6J mice; oral trametinib 0.75 mg/kg daily gavage 5x/week, Day 9): 70% | Survival Rates (C57BL/6J mice; oral trametinib 0.75 mg/kg daily gavage 5x/week, Day 12): 70% | Survival Rates (C57BL/6J mice; oral trametinib 0.75 mg/kg daily gavage 5x/week, Day 15): 70% | Survival Rates (C57BL/6J mice; oral trametinib 0.75 mg/kg daily gavage 5x/week, Day 18): 70% | Survival Rates (C57BL/6J mice; oral trametinib 0.75 mg/kg daily gavage 5x/week, Day 21): 70% | Survival Rates (C57BL/6J mice; oral trametinib 0.75 mg/kg daily gavage 5x/week, Day 24): 70% | Survival Rates (C57BL/6J mice; oral trametinib 0.75 mg/kg daily gavage 5x/week, Day 25): 70% | Survival Rates (C57BL/6J mice; topical Trametinib 1%, twice daily 5 days per week, 10% BSA, Day 0): 100% | Survival Rates (C57BL/6J mice; topical Trametinib 1%, twice daily 5 days per week, 10% BSA, Day 3): 100% | Survival Rates (C57BL/6J mice; topical Trametinib 1%, twice daily 5 days per week, 10% BSA, Day 6): 100% | Survival Rates (C57BL/6J mice; topical Trametinib 1%, twice daily 5 days per week, 10% BSA, Day 9): 100% | Survival Rates (C57BL/6J mice; topical Trametinib 1%, twice daily 5 days per week, 10% BSA, Day 12): 100% | Survival Rates (C57BL/6J mice; topical Trametinib 1%, twice daily 5 days per week, 10% BSA, Day 15): 80% | Survival Rates (C57BL/6J mice; topical Trametinib 1%, twice daily 5 days per week, 10% BSA, Day 18): 0% | Survival Rates (C57BL/6J mice; topical Trametinib 1%, twice daily 5 days per week, 10% BSA, Day 21): 0% | Survival Rates (C57BL/6J mice; topical Trametinib 1%, twice daily 5 days per week, 10% BSA, Day 24): 0% | Survival Rates (C57BL/6J mice; topical Trametinib 1%, twice daily 5 days per week, 10% BSA, Day 25): 0% | mortality / weight loss (C57BL/6J mice; topically-applied 1%, Day 18): found dead, or had to be sacrificed due to unacceptable weight loss

The remaining lines, values ahead:

CLint [1]: 10.37 μL/min/mg protein | microsomal CLint at 1 μM [1]: 10.4 µL/min/mg | half-life at 1 μM [1]: 0.55 h
Structure (SMILES): O=C(NOCC1CC1)c1ccc(F)c(F)c1Nc1ccc(I)cc1Cl [Example C1]

CLint [1]: 1.25 μL/min/mg protein | microsomal CLint at 1 μM [1]: 1.25 µL/min/mg | half-life at 1 μM [1]: 4.62 h
Structure (SMILES): Cn1cnc2c(F)c(Nc3ccc(Br)cc3F)c(C(=O)NOCCO)cc21 [Example C3]

CLint [1]: 2.50 μL/min/mg protein | microsomal CLint at 1 μM [1]: 2.5 µL/min/mg | half-life at 1 μM [1]: 2.3 h
Structure (SMILES): Cn1cnc2c(F)c(Nc3ccc(Br)cc3Cl)c(C(=O)NOCCO)cc21 [Example C4]

CLint [1]: 6.98 μL/min/mg protein | microsomal CLint at 1 μM [1]: 6.98 µL/min/mg | half-life at 1 μM [1]: 0.833 h
Structure (SMILES): O=C(NOCCO)c1ccc2cncn2c1Nc1ccc(I)cc1F [Example C5]

CLint [1]: 1.29 μL/min/mg protein | microsomal CLint at 1 μM [1]: 1.29 µL/min/mg | half-life at 1 μM [1]: 4.47 h
Structure (SMILES): O=C(NC[C@@H](O)CO)c1ccncc1Nc1ccc(I)cc1F [Example C7]
